In PubChem BioAssay AID2060502 (Molecular Pharmacology Branch, DTP, NCI, 2025):

System: 885724-159-R-J1-PDC complex spheroid viability
Experiment: Anticancer human tumor 885724-159-R-J1-PDC patient-derived pancreatic adenocarcinoma cell line growth inhibition [GQUAD]
Conditions: for IC50: curve of first compound; for viability, T/C: stronger effect = lower value
Outline: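 Tumor cells were grown as complex spheroids with HUVEC endothelial cells and mesenchymal stem cells as stroma. G-quadruplex stabilizers were combined with targeted agents over half-log dilutions from near the clinical Cmax, or from 10 microM.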

[1] = second compound 0.0316 µM, first compound 0.0316 µM
[2] = second compound 0.0316 µM, first compound 0.1 µM
[3] = second compound 0.0316 µM, first compound 0.316 µM
[4] = second compound 0.0316 µM, first compound 1 µM
[5] = second compound 0.0316 µM, first compound 3.16 µM
[6] = second compound 0.0316 µM, first compound 10 µM
[7] = second compound 0.1 µM, first compound 0.0316 µM
[8] = second compound 0.1 µM, first compound 0.1 µM
[9] = second compound 0.1 µM, first compound 0.316 µM
[10] = second compound 0.1 µM, first compound 1 µM
[11] = second compound 0.1 µM, first compound 3.16 µM
[12] = second compound 0.1 µM, first compound 10 µM
[13] = second compound 0.316 µM, first compound 0.0316 µM
[14] = second compound 0.316 µM, first compound 0.1 µM
[15] = second compound 0.316 µM, first compound 0.316 µM
[16] = second compound 0.316 µM, first compound 1 µM
[17] = second compound 0.316 µM, first compound 3.16 µM
[18] = second compound 0.316 µM, first compound 10 µM
[19] = second compound 1 µM, first compound 0.0316 µM
[20] = second compound 1 µM, first compound 0.1 µM
[21] = second compound 1 µM, first compound 0.316 µM
[22] = second compound 1 µM, first compound 1 µM
[23] = second compound 1 µM, first compound 3.16 µM
[24] = second compound 1 µM, first compound 10 µM
[25] = second compound 3.16 µM, first compound 0.0316 µM
[26] = second compound 3.16 µM, first compound 0.1 µM
[27] = second compound 3.16 µM, first compound 0.316 µM
[28] = second compound 3.16 µM, first compound 1 µM
[29] = second compound 3.16 µM, first compound 3.16 µM
[30] = second compound 3.16 µM, first compound 10 µM
[31] = second compound 10 µM, first compound 0.0316 µM
[32] = second compound 10 µM, first compound 0.1 µM
[33] = second compound 10 µM, first compound 0.316 µM
[34] = second compound 10 µM, first compound 1 µM
[35] = second compound 10 µM, first compound 3.16 µM
[36] = second compound 10 µM, first compound 10 µM
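Note: spheroids exposed to agents for seven days before readout.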
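Throughout, for viability, T/C: percent of vehicle control viability where 100% = DMSO wells.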

## O=c1[nH]cc(F)c(=O)[nH]1 + Cc1cnc(CNC(=O)c2c(=O)c3ccc(N4CCCN(C)CC4)nc3n3c2sc2ccccc23)cn1
Second compound 0.0316 µM
  IC50: > 10 µM
Second compound 0.1 µM
  IC50: > 10 µM
Second compound 0.316 µM
  IC50: > 10 µM
Second compound 1 µM
  IC50: > 10 µM
Second compound 3.16 µM
  IC50: > 10 µM
Second compound 10 µM
  IC50: > 10 µM
[1]
  viability, T/C: 108%
[2]
  viability, T/C: 107%
[3]
  viability, T/C: 116%
[4]
  viability, T/C: 118%
[5]
  viability, T/C: 87.1%
[6]
  viability, T/C: 88.8%
[7]
  viability, T/C: 103%
[8]
  viability, T/C: 107%
[9]
  viability, T/C: 112%
[10]
  viability, T/C: 116%
[11]
  viability, T/C: 92.1%
[12]
  viability, T/C: 102%
[13]
  viability, T/C: 99.2%
[14]
  viability, T/C: 109%
[15]
  viability, T/C: 91.5%
[16]
  viability, T/C: 103%
[17]
  viability, T/C: 96.4%
[18]
  viability, T/C: 97.1%
[19]
  viability, T/C: 84.2%
[20]
  viability, T/C: 84.1%
[21]
  viability, T/C: 100%
[22]
  viability, T/C: 87.1%
[23]
  viability, T/C: 86.2%
[24]
  viability, T/C: 83%
[25]
  viability, T/C: 78.2%
[26]
  viability, T/C: 89.7%
[27]
  viability, T/C: 90.5%
[28]
  viability, T/C: 78.1%
[29]
  viability, T/C: 83.8%
[30]
  viability, T/C: 84.4%
[31]
  viability, T/C: 81.7%
[32]
  viability, T/C: 77%
[33]
  viability, T/C: 74.8%
[34]
  viability, T/C: 84%
[35]
  viability, T/C: 77.8%
[36]
  viability, T/C: 72.2%

## Cc1cccc(N(C)C(=O)C2C(O)CCN2c2nc(C)cc(C(F)(F)F)c2C#N)c1 (centres undefined) + Cc1cnc(CNC(=O)c2c(=O)c3ccc(N4CCCN(C)CC4)nc3n3c2sc2ccccc23)cn1
Second compound 0.0316 µM
  IC50: > 10 µM
Second compound 0.1 µM
  IC50: > 10 µM
Second compound 0.316 µM
  IC50: > 10 µM
Second compound 1 µM
  IC50: > 10 µM
Second compound 3.16 µM
  IC50: > 10 µM
Second compound 10 µM
  IC50: > 10 µM
[1]
  viability, T/C: 93.7%
[2]
  viability, T/C: 107%
[3]
  viability, T/C: 108%
[4]
  viability, T/C: 99.7%
[5]
  viability, T/C: 104%
[6]
  viability, T/C: 96.9%
[7]
  viability, T/C: 107%
[8]
  viability, T/C: 106%
[9]
  viability, T/C: 112%
[10]
  viability, T/C: 98.6%
[11]
  viability, T/C: 91.8%
[12]
  viability, T/C: 108%
[13]
  viability, T/C: 103%
[14]
  viability, T/C: 84%
[15]
  viability, T/C: 89.3%
[16]
  viability, T/C: 93.9%
[17]
  viability, T/C: 101%
[18]
  viability, T/C: 82.5%
[19]
  viability, T/C: 83.6%
[20]
  viability, T/C: 95.6%
[21]
  viability, T/C: 88.3%
[22]
  viability, T/C: 88.4%
[23]
  viability, T/C: 93.9%
[24]
  viability, T/C: 94.3%
[25]
  viability, T/C: 84%
[26]
  viability, T/C: 70.5%
[27]
  viability, T/C: 79.1%
[28]
  viability, T/C: 72.8%
[29]
  viability, T/C: 79.4%
[30]
  viability, T/C: 73.3%
[31]
  viability, T/C: 92.7%
[32]
  viability, T/C: 90.9%
[33]
  viability, T/C: 84.8%
[34]
  viability, T/C: 72.6%
[35]
  viability, T/C: 103%
[36]
  viability, T/C: 84.3%
